Experimental data published in patent publication US20140271881A1, “ANTISEPTIC COMPOSITION” (priority 2011, published 2014).

Tests used:
[1] = system: traumatic or chronic wounds
[2] = system: acute traumatic or chronic wounds; test: Clinical study on 6 dogs with acute traumatic or chronic wounds with delayed healing; type: in vivo
Protocol: A clinical study of the effect of the combination used in the present invention was carried out on 6 dogs carrying inflammatory pathological conditions having led to acute traumatic or chronic wounds caused by lesion due to scratching with delayed healing.
The composition of the invention was applied in spray lotion form, twice a day, directly onto the wound to be treated. The results were observed 1 (D1), 2(D2), 3(D3), 5(D5) and 7(D7) days after the 1st application.

With `Nc1ccc(S(=O)(=O)Nc2ncccn2)cc1` [sulfadiazine] the Effectiveness on healing [1] was “not very effective”, the “Rapidity of response to the applications” value ([2]; acute or chronic wounds, observed most commonly) was “such a rapid response is never observed” and the “Effectiveness of treatments carried out previously” value ([2]; the 6 dogs, before the study) was “ineffective”.
